Results on 1 compound are retold here after patent US12599628B2, “Mitigation of cryptosporidiosis using hydrogen peroxide-generating compositions” (Purina Animal Nutrition, LLC, priority 2021, dated 2026).

Experiment [1] concerns C. parvum oocysts (Iowa isolate). The experiment in a line: Clinical calf cryptosporidiosis trial (oocyst shedding, body weight, feces, clinical scores). It counts as in vivo, Cryptosporidium parvum. Conditions: for daily number of oocysts shed compared to control group: FIG. 3; for decrease in weight over the course of the trial: FIG. 5.
Experiment [2] relates to C. parvum sporozoites excysted from oocysts shed by infected calves. The experiment in a line: Infectivity of Cryptosporidium oocysts shed by treated calves, excysted and tested on HCT-8 cells. The class given is cell-based, Cryptosporidium parvum. Conditions: FIG. 8. Here is the method: (§1) HCT-8 (human ileocecal adenocarcinoma) cells were grown in a monolayer to 85-90% confluency in RPMI-1640 medium. Freshly excysted, washed C. parvum sporozoites were mixed with a sodium percarbonate treatment and then added to HCT-8 cells at 1.25×10^6 sporozoites per monolayer. The cells were incubated with the sporozoites for 2 hours at 10% CO2, 37° C. Cells were then washed and incubated in fresh media for 22 hours. Infected, untreated cells served as a control. After incubation, infected cells were harvested and DNA was isolated. The number of C. parvum were quantified using qPCR for the Cryptosporidium oocyst wall protein (COWP) gene.
Oocysts were collected from feces of calves in the control and treatment groups of Example 3 on multiple days during the duration of the study. The oocysts were excysted and analyzed to ensure equal excystation rates between the four treatment groups. HCT-8 cells were infected, harvested, and processed as described in Example 1.

Another experiment deals with C. parvum oocysts. The experiment in a line: Mouse Cryptosporidium challenge, infection level in intestines by qPCR. The class given is in vivo, Cryptosporidium parvum. Conditions: FIG. 2. As to the method: Sodium percarbonate (“NPC”) at 0.26 mg/head, 12.5 mg/head, or 450 mg/head was tested in a Cryptosporidium challenge in mice. Eight-day-old ICR or CD-1 mice were divided into treatment (UA) and control (water) groups (n=10/group). Mice were infected with 1×10^4 C. parvum oocysts by oral inoculation. At the time of infection, and for every 12 hours thereafter, mice were treated with 100 μl per dose of NPC or water. A total of 8 doses per mouse were administered before termination of the challenge and collection of the intestines. The experiment was repeated twice (“Challenges I and II”). Infection levels were determined by qPCR against a known standard curve of C. parvum organisms.
A general note: Quantitative PCR measures a nucleic acid by following its amplification.

In the next experiment the test system is C. parvum sporozoites. Put plainly: In vitro Cryptosporidium exposure: C. parvum sporozoites mixed with treatment, added to HCT-8 cells, qPCR of COWP gene. The class given is cell-based. Conditions: all treatment concentrations (0.26, 2.08, 3.125, 6.25, 12.5, 18.75, 25, 450 mg/L); p<0.05; FIG. 1. Here is the method:
as §1, with “Sodium percarbonate (0.26, 2.08, 3.125, 6.25, 12.5, 18.75, 25, or 450 mg/L) was tested for its ability to neutralize C. parvum sporozoites in host epithelial cells. HCT-8 (human” for “HCT-8 (human”

As to `O=C([O-])[O-].O=C([O-])[O-].OO.OO.OO.[Na+].[Na+].[Na+].[Na+]` [sodium percarbonate], the “daily number of oocysts shed compared to control group” value in experiment [1] (calves, 500 mg NPC BID in milk replacer, p<0.05) is “significantly fewer oocysts on Days 4-6 and 9-10 PI”; in experiment [1] (calves, 1000 mg NPC BID in milk replacer, p<0.05), “significantly fewer oocysts on Days 6 and 10 PI”. Besides, the “reduction of mean total number of oocysts shed over the trial compared to control group” value in experiment [1] (calves, 500 mg NPC BID, Days 3-10 PI, p<0.05, FIG. 4) was “about 24%”. For the same compound, the “decrease in weight over the course of the trial” value in experiment [1] (infected calves, H-NPC (1000 mg NPC BID)) is 3.6%; in experiment [1] (infected calves, L-NPC (500 mg NPC BID)), 2.5%. Further, the “weight loss compared to the control group” value in experiment [1] (infected calves, both NPC treatment groups (500 and 1000 mg BID)) is “tended to lose less weight”. Moreover, the “ability of shed oocysts to infect HCT-8 cells compared with oocysts from untreated calves” value in experiment [2] (oocysts from calves treated with high-dose (1000 mg BID) sodium percarbonate) and in experiment [2] (oocysts from calves treated with low-dose (500 mg BID) sodium percarbonate) was “reduced ability to infect HCT-8 cells” throughout. For the same compound, the “dose dependence of percent reduction in C. parvum infection” value with C. parvum oocysts (mice, 0.26, 12.5, 450 mg/head) is reported as “increased as treatment dose increased”. For the same compound, the “percent reduction in C. parvum infection compared to control” value with C. parvum oocysts (mice, 450 mg/head, 8 doses every 12 hours, oral) is on record as 89.9%. The “reduction in infection by C. parvum sporozoites of HCT-8 cells compared to untreated control” value with C. parvum sporozoites was “significantly reduced infected”.
